The source of these data is patent US20250223281A1, “ANTIDIABETIC COMPOUNDS AND COMPOSITIONS” (REZUBIO PHARMACEUTICALS CO., LTD, priority 2022, published 2025).

A word on the EC50: it is the concentration at which the effect is half-maximal. Low values mean a more potent agent, high ones a less potent agent.

The target of this assay is T1, GPR40 (Homo sapiens, UniProt O14842).
T1 construct: expressed in transfected cells; host or cells: HEK293 cells stably expressing GPR40 (Hygromycin selection)
T1 sequence (O14842 whole entry): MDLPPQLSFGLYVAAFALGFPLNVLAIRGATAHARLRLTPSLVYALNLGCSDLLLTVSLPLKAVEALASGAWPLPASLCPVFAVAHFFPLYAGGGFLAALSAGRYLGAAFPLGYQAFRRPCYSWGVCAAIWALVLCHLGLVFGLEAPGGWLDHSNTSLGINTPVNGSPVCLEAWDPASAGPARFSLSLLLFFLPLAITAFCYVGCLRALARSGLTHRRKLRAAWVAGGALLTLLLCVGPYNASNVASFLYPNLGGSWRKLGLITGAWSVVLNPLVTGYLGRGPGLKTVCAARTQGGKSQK
The assay can be described thus: IP1 accumulation assay in HEK293 cells stably expressing GPR40. The assay is classed as cell-based. Here is the method: IP1 accumulation assay was used to evaluate the potency of compounds. HEK293 cells stably expressing GPR40 were cultured in 5% CO2 incubator (ThermoFisher) in maintenance media (Dulbecco's modified Eagle's medium with 4.5 g/L of glucose, 10% fetal bovine serum, 100 μg/mL Hygromycin, and Penicillin (100 U/mL)/Streptomycin (100 μg/mL)) till 100% confluency. Cells were harvested freshly, spun down at 300×g for 5 min, and resuspended in pre-warmed 1× stimulant buffer from Cisbio IP-One HTRF Detection kit (Cisbio). Cell density was adjusted to 2.0×10^6 cells/mL. DMSO was used as blank control and AMG-1638 (CAS #: 1142214-62-7) as positive control. Compounds were prepared at 10 mM in DMSO and 5 nL of 3× serially diluted compounds (10 concentrations) were added to each well of the 384-LDV assay plate (Corning) by using ECHO 550 (Labcyte). Five μL of cells in suspension were transferred into each well by using Multidrop Combi Reagent Dispenser (ThermoFisher). Assay plate was then sealed and incubated at 37° C. for 2 hours. IP-d2 reagent and anti-IP1 reagent were prepared following the manual (Cisbio). Five μL of IP1-d2 and then 5 μL of anti-IP1 antibody was added to each well sequentially. Assay plate was incubated at room temperature for 60 min and then read at 665 nm/615 nm on an Envision plate reader (PerkinElmer). The ratio of values obtained at 665 nm and 615 nm was used for calculation of IP1 accumulation: % Effect=(Ratiosample−Ratioblank)/(RatioAMG-1638−Ratioblank)×100. Dose curve was fitted and EC50 of each compound was calculated by using XLFit.

[1] abbreviates: IP1 accumulation, HEK293 cells stably expressing GPR40, 2 hours at 37° C., % effect relative to AMG-1638, table of Biological Example 1.
Setting [2] is: Tables A-1a to A-7b (structure-property relationship), obtained by methods of Biological Example 1.

Under setting [1], `COc1ccc(C(=O)N(CC(C)(C)CCCCCCCCCCCCCCCCCCCC(=O)NCC[N+](C)(CCC(=O)NCCN)CCC(=O)NCCN)c2cccc(C)n2)c(N2CCC(COc3cc([C@@H](CC(=O)O)C4CC4)ccn3)CC2)c1` [Example 65, (S)-3-((2-aminoethyl)amino)-N-(3-((2-aminoethyl)amino)-3-oxopropyl)-N-(2-(22-(2-(4-(((4-(2-carboxy-1-cyclopropylethyl)pyridin-2-yl)oxy)methyl)piperidin-1-yl)-4-methoxy-N-(6-methylpyridin-2-yl)benzamido)-21,21-dimethyldocosanamido)ethyl)-N-methyl-3-oxopropan-1-aminium chloride] registered an EC50 of 0.28 nM.

As for `C[C@H](C(=O)O)[C@H](c1ccc2c(c1)O[C@@H](C1CCN(Cc3cc(-n4cc(CCCCCCCCCCCCCCCCCC(=O)NCC[N+](C)(C)CCCS(=O)(=O)[O-])nn4)ccc3OC(F)(F)F)CC1)CC2)C1CC1` [Example 66], under setting [1], the EC50 worked out at 0.49 nM. Regarding `COc1ccc(C(=O)N(CC(C)(C)CCCCCCCCCCCCCCCCCCCC(=O)NCC[N+](C)(CC(=O)NCCN)CC(=O)NCCN)c2cccc(C)n2)c(N2CCC(COc3cc([C@@H](CC(=O)O)C4CC4)ccn3)CC2)c1` [Example 67], the response under setting [1] was half-maximal at 0.38 nM (EC50).

`COc1ccc(C(=O)N(CC(C)(C)CCCCCCn2cc(CCCCCCCCCCC(=O)NCCN(CCC(=O)NCCN)CCC(=O)NCCN)nn2)c2cccc(C)n2)c(N2CCC(COc3cc([C@@H](CC(=O)O)C4CC4)ccn3)CC2)c1` [Example 68] showed an EC50 under setting [1] of 1 nM and an EC50 under setting [2] of 1.79 nM. `C[C@H](C(=O)O)[C@H](c1ccc2c(c1)O[C@@H](C1CCN(Cc3cc(-n4cc(CCCCCCCCCCCCCCCCCC(=O)NCC[N+](C)(C)C)nn4)ccc3OC(F)(F)F)CC1)CC2)C1CC1` [Example 70]: the EC50 under setting [1] is 0.43 nM. Regarding `C[C@H](C(=O)O)[C@H](c1ccc2c(c1)O[C@@H](C1CCN(Cc3cc(-n4cc(CCCCCCCCCCCCCCC(=O)NCC[N+](C)(CCC(=O)NCCN)CCC(=O)NCCN)nn4)ccc3OC(F)(F)F)CC1)CC2)C1CC1` [Example 72], the EC50 is 6.74 nM under setting [1] and 6.74 nM under setting [2].

`COc1ccc(C(=O)N(CC(C)(C)CCCCCCn2cc(CCCCCCCCCCCCCCCCCC(=O)NCC[N+](C)(C)CCCS(=O)(=O)[O-])nn2)c2cccc(C)n2)c(N2CCC(COc3cc([C@@H](CC(=O)O)C4CC4)ccn3)CC2)c1` [Example 73]: the response under setting [1] was half-maximal at 0.1 nM (EC50).

`COc1ccc(C(=O)N(CC(C)(C)CCCCCCn2cc(CCCCCCCCCCC(=O)NCCN(CCC(=O)NCCN)CCC(=O)NCCN)nn2)c2cccc(C)n2)c(N2CCC(COc3cc([C@@H](CC(=O)O)C4CC4)ccn3)CC2)c1` [Example 74] gave an EC50 under setting [1] of 2.99 nM and an EC50 under setting [2] of 2.99 nM. In the case of `COc1ccc(C(=O)N(CC(C)(C)CCCCCCn2cc(CCCCCCCCC(=O)NCCN(CCC(=O)NCCN)CCC(=O)NCCN)nn2)c2cccc(C)n2)c(N2CCC(COc3cc([C@@H](CC(=O)O)C4CC4)ccn3)CC2)c1` [Example 75], the EC50 was determined as 0.75 nM under setting [1] and 1.92 nM under setting [2]. Turning to `CCCCCNC(=O)CCCCCCCCCCCCCCCCCc1cn(CC(C)(C)Cc2cc(COc3cccc([C@@H](CC(=O)O)C4CC4)c3)ccc2-c2cc(OC)ccc2F)nn1` [Example 76], it took 112 nM to reach a half-maximal effect under setting [1] (EC50). For the compound `C[C@H](C(=O)O)[C@H](c1ccc2c(c1)O[C@@H](C1CCN(Cc3cc(-c4cn(CCCCCCCCCC(=O)NCCN(CCC(=O)NCCN)CCC(=O)NCCN)nn4)ccc3OC(F)(F)F)CC1)CC2)C1CC1` [Example 77], the EC50 was 8400 nM under setting [1] and greater than 10000 nM under setting [2]. Taken in the same sequence, the figures for `C[C@H](C(=O)O)[C@H](c1ccc2c(c1)O[C@@H](C1CCN(Cc3cc(-n4cc(CCCCCCCCCCCCCC(=O)NCCN(CCC(=O)NCCN)CCC(=O)NCCN)nn4)ccc3OC(F)(F)F)CC1)CC2)C1CC1` [Example 78] were 1.4 nM and 1.4 nM. Consider `C[C@H](C(=O)O)[C@H](c1ccc2c(c1)O[C@@H](C1CCN(Cc3cc(-n4cc(CCCCCCCCCCC(=O)NCCN(CCC(=O)NCCN)CCC(=O)NCCN)nn4)ccc3OC(F)(F)F)CC1)CC2)C1CC1` [Example 79], for which the EC50 runs as follows: under setting [1], 183 nM; under setting [2], 183 nM.
